Experimental data: patent US20260001914A1, “MACROCYCLIC PEPTIDES TARGETING KRAS” (Merck Sharp & Dohme LLC, priority 2022, published 2026)
*1 amine or outer side, *2 acyl side, *3 side chain or, on linkers, in order; H or OH if unused. Where a SMILES comes first, the peptide text is derived from it. Bridges are numbered along the chain shown (N, C = ends). [ ]: non-standard residue; d: D form. The star is where a group is joined. Ala(1-bicyclo(1.1.1)pentyl) = N[C@@H](CC12CC(C1)C2)C(=O)O; X48 = CCCC[C@@H](/C=C\[C@@H](Cc1cccnc1)C(=O)[*:2])N[*:1]; Phe(4-guanidino) = N=C(N)Nc1ccc(C[C@H](N)C(=O)O)cc1; X82 = CS(=O)(=O)c1ncc(C[C@H](N[*:1])C(=O)[*:2])cn1; N(3-imidazol-1-ylpropyl)Gly = O=C(O)CNCCCn1ccnc1; X22 = CNC(=N)N(C)CCC[C@@H](C(=O)[*:2])N(C)[*:1]; Ala(pyrimidin-5-yl) = N[C@@H](Cc1cncnc1)C(=O)O; X6 = O=C([C@H](Cc1cnn(C2COC2)c1)N[*:1])[*:2]; NMePhe(3-Me) = CN[C@@H](Cc1cccc(C)c1)C(=O)O; X43 = CN([C@@H](Cc1cnccc1F)C(=O)[*:2])[*:1]; Ethyl(2-pyrrolidin-1-yl) = C1CCN(CC*)C1; Lys(N3) = [N-]=[N+]=NCCCC[C@H](N)C(=O)O; X15 = O=C([C@H](Cc1cnccc1F)N[*:1])[*:2]; Nle(5,5-F2) = CC(F)(F)CC[C@H](N)C(=O)O; Phe(4-F) = N[C@@H](Cc1ccc(F)cc1)C(=O)O; NHCH2CH2SCH2CO = O=C(CSCCN[*:1])[*:2]; Phe(2-F) = N[C@@H](Cc1ccccc1F)C(=O)O; X31 = O=C([C@H](CCC1CC1)N[*:1])[*:2]; NMe3Pal = CN[C@@H](Cc1cccnc1)C(=O)O; X1 = O=C(C12CC(CN[*:1])(C1)C2)[*:2]; Ala(cPr) = N[C@@H](CC1CC1)C(=O)O; NMeF = CN[C@@H](Cc1ccccc1)C(=O)O; PhLac = O=C(O)[C@@H](O)Cc1ccccc1; 3Pal = N[C@@H](Cc1cccnc1)C(=O)O; d3Pal = N[C@H](Cc1cccnc1)C(=O)O; X58 = O=C(C1CC(N[*:1])C1)[*:2]; Ahp(2) = CCCCC[C@H](N)C(=O)O; Cba = N[C@@H](CC1CCC1)C(=O)O; hLeu = CC(C)CC[C@H](N)C(=O)O; αMeC = C[C@](N)(CS)C(=O)O; NMeA = CN[C@@H](C)C(=O)O; Nle = CCCC[C@H](N)C(=O)O

Biological target: KRAS-G12D protein (Homo sapiens, UniProt P01116, G12D)
Sequence (P01116 1-188 isoform P01116-2 G12D): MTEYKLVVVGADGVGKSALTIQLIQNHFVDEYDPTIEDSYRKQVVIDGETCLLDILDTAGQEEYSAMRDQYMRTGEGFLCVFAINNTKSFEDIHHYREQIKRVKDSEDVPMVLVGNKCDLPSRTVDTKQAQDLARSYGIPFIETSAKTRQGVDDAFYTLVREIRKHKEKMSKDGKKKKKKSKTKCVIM
Assay: SOS-mediated nucleotide exchange assay (BODIPY-GDP / Tb-streptavidin TR-FRET)
Type: biochemical

SMILES | EC50 [nM]
CCCC[C@@H]1NC(=O)[C@H](Cc2ccc(O)cc2)NC(=O)[C@H](CC(C)C)NC(=O)[C@H](Cc2ccc(OC)cc2)NC(=O)[C@H](CCCNC(=N)N)NC(=O)[C@H](Cc2ccccc2)NC(=O)CSCCNC(=O)[C@H](Cc2ccccc2)N(C)C1=O [compound 72, cyclo(F-R-TyrOMe-L-Y-Nle-NMeF-Cysteamine-ClAc)] | 2250
CCCC[C@@H]1NC(=O)[C@H](CCCCN=[N+]=[N-])NC(=O)[C@H](CCCNC(=N)N)NC(=O)[C@H](Cc2ccc(F)cc2)NC(=O)CSCCNC(=O)[C@H](Cc2ccccc2)N(C)C(=O)[C@H](CCCC)NC(=O)[C@H](Cc2ccc(O)cc2)NC1=O [compound 89, cyclo(Phe4F-R-LysN3-Nle-Y-Nle-NMeF-Cysteamine-ClAc)] (cyclo([Lys(N3)][Nle]Y[Nle][NMeF][NHCH2CH2SCH2CO][Phe(4-F)]R)) | 3530
C[C@H]1C(=O)N[C@@H](Cc2cncnc2)C(=O)N[C@@H](CC2CC2)C(=O)N[C@@H](Cc2ccccc2F)C(=O)N[C@@H](CCC2CC2)C(=O)N(C)[C@@H](Cc2ccccc2)C(=O)NCC23CC(C2)(C3)C(=O)O[C@@H](Cc2ccccc2)C(=O)N1C [compound 114, cyclo(FLac-NMeA-PyrimAla-cPrA-Phe2F-hcPrA-NMeF-amBCP)] (cyclo([Ala(cPr)][Phe(2-F)][X31][NMeF][X1][PhLac][NMeA][Ala(pyrimidin-5-yl)])) | 2
CCCCC[C@@H]1NC(=O)[C@H](Cc2ccc(OC)cc2)NC(=O)[C@H](CC2CCC2)NC(=O)[C@H](Cc2ccc(NC(=N)N)cc2)NC(=O)[C@H](CCCN(C)C(=N)NC)N(C)C(=O)[C@H](Cc2ccccc2)NC(=O)CSC[C@@](C)(C(N)=O)NC(=O)[C@H](Cc2ccccc2)N(C)C1=O [compound 381, cyclo(F-NMeArg1MeMe-Phe4Gn-cBuA-TyrOMe-Ahp-NMeF-aMeCl-ClAc)] ({CH2CO}-F[X22][Phe(4-guanidino)][Cba]Y(Me)[Ahp(2)][NMeF][αMeC]-NH2; thioether N-8) | 1.69
CCCCC[C@@H]1NC(=O)[C@H](Cc2ccc(OC)cc2)NC(=O)[C@H](CC2CCC2)NC(=O)[C@H](Cc2ccc(N3CCC[C@@H]3CN)cc2)NC(=O)[C@H](CCCNC(=N)N)NC(=O)[C@H](Cc2ccccc2)NC(=O)CSC[C@@](C)(C(N)=O)NC(=O)[C@H](Cc2ccccc2)N(C)C1=O [compound 391, cyclo(F-R~Phe4RamPyrr-cBuA-TyrOMe-Abp-NMeF-aMeCl-ClAc)] | 6.78
CCCC[C@@H]1NC(=O)[C@H](Cc2ccccc2F)NC(=O)[C@H](CC2CCC2)NC(=O)[C@@H](Cc2cccnc2)NC(=O)CN(CCCn2ccnc2)C(=O)[C@H](Cc2ccccc2)NC(=O)C23CC(CNC(=O)[C@H](Cc4cccnc4)N(C)C1=O)(C2)C3 [compound 181, cyclo(F-IPG-d3Pal-cBuA-Phe2F-Nle-NMe3Pal-amBCP)] (cyclo(F[N(3-imidazol-1-ylpropyl)Gly][d3Pal][Cba][Phe(2-F)][Nle][NMe3Pal][X1])) | 1230
CON=C1C[C@@H](Cc2ccccc2)C(=O)N(C)[C@@H](C)C(=O)N[C@@H](Cc2cncnc2)C(=O)N[C@@H](CC2CC2)C(=O)N[C@@H](Cc2ccccc2F)C(=O)N[C@@H](CCC(C)(F)F)C(=O)N(C)[C@@H](Cc2ccccc2)C(=O)NCC23CC1(C2)C3 (single isomer, unassigned) [compound 178, cyclo(CPhe-NMeA-PyrimAla-cPrA-Phe2F-Nle3F2-NMeF-MeOximamBCP)] | 1.7
Cc1cccc(C[C@H]2C(=O)NCC34CC(C3)(C4)C(=O)O[C@@H](Cc3ccccc3)C(=O)N(C)[C@@H](C)C(=O)N[C@@H](Cc3cncnc3)C(=O)N[C@@H](CC3CC3)C(=O)N[C@@H](Cc3ccccc3F)C(=O)N[C@@H](CCC(C)(F)F)C(=O)N2C)c1 [compound 275, cyclo(FLac-NMeA-PyrimAla-cPrA-Phe2F-Nle3F2-NMePhe3Me-amBCP)] (cyclo([Ala(cPr)][Phe(2-F)][Nle(5,5-F2)][NMePhe(3-Me)][X1][PhLac][NMeA][Ala(pyrimidin-5-yl)])) | 1
CCCC[C@@H]1NC(=O)[C@H](Cc2ccc(NC(=N)N)cc2)NC(=O)[C@H](CCCNC(=N)N)NC(=O)[C@H](Cc2ccccc2)NC(=O)C2CC(C2)NC(=O)[C@H](Cc2ccccc2)N(C)C(=O)[C@H](CCCC)NC(=O)[C@H](Cc2ccc(OC)cc2)NC1=O [compound 92, cyclo(F-R-Phe4Gn-Nle-TyrOMe-Nle-NMeF-acBu)] (cyclo(FR[Phe(4-guanidino)][Nle]Y(Me)[Nle][NMeF][X58])) | 13.9
CCCC[C@@H]1NC(=O)[C@H](Cc2ccc(OCCN3CCCC3)cc2)NC(=O)[C@H](C)N(C)C(=O)[C@H](Cc2ccccc2)OC(=O)C23CC(CNC(=O)[C@H](Cc4ccccc4)N(C)C(=O)[C@H](CCCC)NC(=O)[C@H](Cc4ccccc4F)NC1=O)(C2)C3 [compound 316, cyclo(FLac-NMeA-TyrOEtPyr-Nle-Phe2F-Nle-NMeF-amBCP)] (cyclo([NMeA]Y(Ethyl(2-pyrrolidin-1-yl))[Nle][Phe(2-F)][Nle][NMeF][X1][PhLac])) | 7.34
CC(C)CC[C@@H]1NC(=O)[C@H](Cc2ccccc2F)NC(=O)[C@H](CC2CC2)NC(=O)[C@H](Cc2cncnc2)NC(=O)[C@H](C)N(C)C(=O)[C@H](Cc2ccccc2)OC(=O)C23CC(CNC(=O)[C@H](Cc4cnccc4F)N(C)C1=O)(C2)C3 [compound 338, cyclo(FLac-NMeA-PyrimAla-cPrA-Phe2F-hL-NMe3Pal6F-amBCP)] (cyclo([Ala(cPr)][Phe(2-F)][hLeu][X43][X1][PhLac][NMeA][Ala(pyrimidin-5-yl)])) | 2
CCCC[C@@H]1NC(=O)[C@H](Cc2ccc(OC)cc2)NC(=O)[C@H](CC2CCC2)NC(=O)[C@H](Cc2cccnc2)NC(=O)[C@H](CCCNC(=N)N)NC(=O)[C@H](Cc2ccccc2)NC(=O)C23CC(CNC(=O)[C@H](Cc4ccccc4)N(C)C1=O)(C2)C3 [compound 98, cyclo(F-R-3Pal-cBuA-TyrOMe-Nle-NMeF-amBCP)] (cyclo(FR[3Pal][Cba]Y(Me)[Nle][NMeF][X1])) | 5.47
CCCC[C@@H]1NC(=O)[C@H](Cc2cccnc2)NC(=O)[C@H](C)N(C)C(=O)[C@H](Cc2ccc(F)cc2)NC(=O)C23CC(CNC(=O)[C@H](Cc4cccnc4)N(C)C(=O)[C@H](CCCC)NC(=O)[C@H](Cc4ccccc4F)NC1=O)(C2)C3 [compound 167, cyclo(Phe4F-NMeA-3Pal-Nle-Phe2F-Nle-NMe3Pal-amBCP)] (cyclo([3Pal][Nle][Phe(2-F)][Nle][NMe3Pal][X1][Phe(4-F)][NMeA])) | 99.9
COc1ccc(C[C@@H]2NC(=O)[C@H](CC3CCC3)NC(=O)[C@H](Cc3cccnc3)NC(=O)[C@H](CCCNC(=N)N)NC(=O)[C@H](Cc3ccccc3)NC(=O)CSC[C@](C)(C(N)=O)NC(=O)[C@@H]3CCCCCCCC[C@H](NC2=O)C(=O)N3C)cc1 (single isomer, unassigned) [SEQ ID NO: 191] | 324
CCCC[C@@H]1NC(=O)[C@H](Cc2cnc(S(C)(=O)=O)nc2)NC(=O)[C@H](C)N(C)C(=O)[C@H](Cc2ccccc2)OC(=O)C23CC(CNC(=O)[C@H](Cc4ccccc4)N(C)C(=O)[C@H](CCCC)NC(=O)[C@H](Cc4ccccc4F)NC1=O)(C2)C3 [compound 313, cyclo(FLac-NMeA-AlaPyrim4SO2Me-Nle-Phe2F-Nle-NMeF-amBCP)] (cyclo([NMeA][X82][Nle][Phe(2-F)][Nle][NMeF][X1][PhLac])) | 5.22
CC(C)CC[C@@H]1NC(=O)[C@H](Cc2ccccc2F)NC(=O)[C@H](CC23CC(C2)C3)NC(=O)[C@H](Cc2cncnc2)NC(=O)[C@H](C)N(C)C(=O)[C@H](Cc2ccccc2)OC(=O)C23CC(CNC(=O)[C@H](Cc4ccccc4)N(C)C1=O)(C2)C3 [compound 272, cyclo(FLac-NMeA-PyrimAla-AlaPent-Phe2F-hL-NMeF-amBCP)] (cyclo([NMeA][Ala(pyrimidin-5-yl)][Ala(1-bicyclo(1.1.1)pentyl)][Phe(2-F)][hLeu][NMeF][X1][PhLac])) | 477
CCCC[C@H]1/C=C\[C@@H](Cc2cccnc2)C(=O)NCC23CC(C2)(C3)C(=O)O[C@@H](Cc2ccccc2)C(=O)N(C)[C@@H](C)C(=O)N[C@@H](Cc2cncnc2)C(=O)N[C@@H](CCCC)C(=O)N[C@@H](Cc2ccccc2F)C(=O)N1 [SEQ ID NO: 137, cyclo(FLac-NMeA- PyrimAla-Nle-Phe2F- Nlecalken3Pal-amBCP)] (cyclo([NMeA][Ala(pyrimidin-5-yl)][Nle][Phe(2-F)][X48][X1][PhLac])) | 590
CCCC[C@@H]1NC(=O)[C@H](Cc2cccnc2)NC(=O)[C@H](C)N(C)C(=O)[C@H](Cc2ccccc2)NC(=O)CSC[C@@](C)(C(N)=O)NC(=O)[C@H](Cc2ccccc2)N(C)C(=O)[C@H](CCCC)NC(=O)[C@H](Cc2ccccc2F)NC1=O [compound 159, cyclo(F-NMeA-3Pal-Nle-Phe2F-Nle-NMeF-aMeCl-ClAc)] ({CH2CO}-F[NMeA][3Pal][Nle][Phe(2-F)][Nle][NMeF][αMeC]-NH2; thioether N-8) | 110
Cc1cccc(C[C@H]2C(=O)NCC34CC(C3)(C4)C(=O)O[C@@H](Cc3ccccc3)C(=O)N(C)[C@@H](C)C(=O)N[C@@H](Cc3cncnc3)C(=O)N[C@@H](CC3CC3)C(=O)N[C@@H](Cc3cnccc3F)C(=O)N[C@@H](CCC(C)C)C(=O)N2C)c1 [compound 278, cyclo(FLac-NMeA-PyrimAla-cPrA-3Pal6F-hL-NMePhe3Me-amBCP)] (cyclo([Ala(cPr)][X15][hLeu][NMePhe(3-Me)][X1][PhLac][NMeA][Ala(pyrimidin-5-yl)])) | 2
CC(C)CC[C@@H]1NC(=O)[C@H](Cc2cnn(C3COC3)c2)NC(=O)[C@H](CC2CC2)NC(=O)[C@H](Cc2cncnc2)NC(=O)[C@H](C)N(C)C(=O)[C@H](Cc2ccccc2)OC(=O)C23CC(CNC(=O)[C@H](Cc4ccccc4)N(C)C1=O)(C2)C3 [compound 300, cyclo(FLac-NMeA-PyrimAla-cPrA-AlaPyz1Ox-hL-NMeF-amBCP)] (cyclo([Ala(cPr)][X6][hLeu][NMeF][X1][PhLac][NMeA][Ala(pyrimidin-5-yl)])) | 254
CCCC[C@@H]1NC(=O)[C@H](Cc2ccc(O)cc2)NC(=O)[C@H](CC2CCCCC2)NC(=O)[C@H](CCCCN)NC(=O)[C@H](CCCNC(=N)N)NC(=O)[C@H](Cc2cccc3ccccc23)NC(=O)CSC[C@H](C(N)=O)NC(=O)[C@H](Cc2ccccc2)N(C)C1=O [compound 139, cyclo(INal-R-K-Cha-Y-Nle-NMeF-dCl-ClAc)] | 5990
